Source: patent US20040121946A9, “Inducing cellular immune responses to her2/neu using peptide and nucleic acid compositions” (priority 2002, published 2004)
Where no end group is shown, it is not given here.

Tests used:
[1] = tested on: HLA-DR molecules (DR1, DR4w4, DR7, DRB5*0101, DRB1*1501, DRB1*1101, DRB1*0802, DRB1*1302); assay: DR supertype cross-reactive binding; design: species or system human; conditions: for DR147 Cross-binding: number of DR1, DR4w4, DR7 bound, Table XXVIII
[2] = molecular target: DRB1*0301 (DR3) (Homo sapiens, UniProt P01903+P01911, A100K/A102G/A103R/A169T/F55Y/I96L/K41T/L162R/M171V/P40S/Q125H/Q178H/Q39Y/R42S/S66N/T106N/T262R/W38E/Y61H); assay: HLA class II peptide binding assay, purified HLA; conditions: unit not given
[3] = molecular target: HLA-B*0702 (Homo sapiens, UniProt P01889); format: binding; conditions: Table XXIV, B7 supermotif peptides
[4] = Table XXa, DR 3a motif peptides
[5] = Table XIX, DR supermotif peptides

| DR3 binding data [2, 4] | DR3 binding data [2, 5] | Compound | further results |
| --- | --- | --- | --- |
| – | – | CC(C)C[C@H](NC(=O)CNC(=O)[C@H](Cc1c[nH]c2ccccc12)NC(=O)[C@@H](N)CCCNC(=N)N)C(=O)N[C@@H](CC(C)C)C(=O)N[C@@H](CC(C)C)C(=O)N[C@@H](C)C(=O)N[C@@H](CC(C)C)C(=O)N[C@@H](CC(C)C)C(=O)N1CCC[C@H]1C(=O)N1CCC[C@H]1C(=O)NCC(=O)N[C@@H](C)C(=O)N[C@@H](C)C(=O)N[C@@H](CO)C(=O)O | DR147 Cross-binding [1]: 2; Broad Binding (5/8) ([1]; number of the 8 DR alleles bound): 6 |
| −0.0025 | – | SDVFDGDLGMGAAKG | – |
| 0.0080 | 0.0080 | CSCC[C@H](NC(=O)[C@H](CC(=O)O)NC(=O)[C@H](CC(=O)O)NC(=O)[C@H](CC(=O)O)NC(=O)[C@H](CCC(=O)O)NC(=O)[C@H](CC(C)C)NC(=O)[C@H](CC(C)C)NC(=O)[C@H](CO)NC(=O)[C@@H](N)CCCNC(=N)N)C(=O)NCC(=O)N[C@@H](CC(=O)O)C(=O)N[C@@H](CC(C)C)C(=O)N[C@H](C(=O)N[C@@H](CC(=O)O)C(=O)N[C@@H](C)C(=O)O)C(C)C | – |
| −0.0027 | – | ETEYHADGGKVPIKW | – |
| 0.2200 | – | CC(C)C[C@H](NC(=O)[C@H](C)NC(=O)[C@H](Cc1ccc(O)cc1)NC(=O)[C@H](CC(N)=O)NC(=O)[C@H](CC(=O)O)NC(=O)[C@H](CCC(=O)O)NC(=O)[C@H](Cc1ccccc1)NC(=O)[C@H](CC(C)C)NC(=O)[C@H](CCC(N)=O)NC(=O)[C@@H](NC(=O)CN)[C@@H](C)O)C(=O)N[C@@H](C)C(=O)N[C@H](C(=O)N[C@@H](CC(C)C)C(=O)N[C@@H](CC(=O)O)C(=O)O)C(C)C | – |
| −0.0027 | −0.0027 | CC(C)C[C@H](NC(=O)[C@H](CS)NC(=O)[C@H](Cc1c[nH]cn1)NC(=O)[C@H](CCCNC(=N)N)NC(=O)[C@H](C)NC(=O)[C@H](CC(N)=O)NC(=O)[C@@H](NC(=O)[C@H](Cc1ccc(O)cc1)NC(=O)[C@H](CCC(=O)O)NC(=O)[C@H](CCCNC(=N)N)NC(=O)[C@@H]1CCCN1C(=O)[C@H](CC(C)C)NC(=O)CNC(=O)[C@H](CCC(N)=O)NC(=O)[C@@H](N)CC(C)C)C(C)C)C(=O)O | – |
| −0.0025 | – | KNGVVKDVFAFGGAV | – |
| – | – | FPLNNTTPV [Her2/neu.121.F1] | IC50 [3]: 0.2 nM |
| 0.0047 | – | NKEILDEAYVMAGVG | – |
| 0.0220 | 0.0220 | CC(C)C[C@H](NC(=O)[C@H](CCC(N)=O)NC(=O)[C@H](CC(=O)O)NC(=O)[C@H](Cc1c[nH]c2ccccc12)NC(=O)[C@@H]1CCCN1C(=O)[C@@H](NC(=O)[C@@H](NC(=O)[C@H](Cc1c[nH]cn1)NC(=O)[C@@H](N)C(C)C)[C@@H](C)O)C(C)C)C(=O)N[C@@H](Cc1ccccc1)C(=O)N[C@@H](CCCNC(=N)N)C(=O)N[C@@H](CC(N)=O)C(=O)N1CCC[C@H]1C(=O)N[C@@H](Cc1c[nH]cn1)C(=O)N[C@@H](CCC(N)=O)C(=O)O | – |
| −0.0027 | −0.0027 | CC(C)C[C@H](NC(=O)[C@@H]1CCCN1C(=O)[C@H](C)NC(=O)[C@@H](NC(=O)[C@H](CC(N)=O)NC(=O)[C@H](CO)NC(=O)[C@H](C)NC(=O)[C@@H]1CCCN1C(=O)[C@H](CC(=O)O)NC(=O)CNC(=O)[C@H](CC(=O)O)NC(=O)[C@H](Cc1ccccc1)NC(=O)[C@H](CO)NC(=O)[C@H](CCC(=O)O)NC(=O)[C@@H]1CCCN1)[C@@H](C)O)C(=O)O | – |
| 0.0710 | 0.0710 | CSCC[C@H](NC(=O)[C@H](CCCNC(=N)N)NC(=O)[C@H](CO)NC(=O)[C@H](Cc1ccccc1)NC(=O)[C@H](CCC(=O)O)NC(=O)[C@H](CO)NC(=O)[C@@H](NC(=O)[C@H](CC(C)C)NC(=O)[C@H](CCC(=O)O)NC(=O)[C@H](CCCNC(=N)N)NC(=O)[C@@H](N)Cc1ccccc1)C(C)C)C(=O)N[C@@H](C)C(=O)N[C@@H](CCCNC(=N)N)C(=O)N[C@@H](CC(=O)O)C(=O)N1CCC[C@H]1C(=O)O | – |
| −0.0027 | −0.0027 | CC[C@H](C)[C@H](NC(=O)[C@@H]1CCCN1C(=O)[C@H](CCSC)NC(=O)[C@H](Cc1ccc(O)cc1)NC(=O)[C@H](CO)NC(=O)[C@H](CC(C)C)NC(=O)[C@H](CC(=O)O)NC(=O)[C@@H]1CCCN1C(=O)[C@H](CCCCN)NC(=O)[C@@H](NC(=O)CNC(=O)[C@H](CO)NC(=O)[C@@H]1CCCN1)C(C)C)C(=O)N[C@@H](Cc1c[nH]c2ccccc12)C(=O)N[C@@H](CCCCN)C(=O)O | – |
| −0.0027 | – | DTILWKDIFHKNNQL | – |
| – | – | CC[C@H](C)[C@H](NC(=O)[C@H](CO)NC(=O)[C@H](CC(C)C)NC(=O)[C@H](CO)NC(=O)[C@H](C)NC(=O)[C@H](CC(N)=O)NC(=O)[C@@H](NC(=O)[C@@H]1CCCN1C(=O)[C@@H](N)Cc1ccccc1)[C@@H](C)O)C(=O)O [Her2/neu.65.F1I9] | IC50 [3]: 4.6 nM |
| 0.0270 | 0.0270 | CC(C)C[C@H](NC(=O)[C@@H]1CCCN1C(=O)[C@@H](NC(=O)[C@@H](NC(=O)[C@@H]1CCCN1C(=O)[C@H](CC(=O)O)NC(=O)[C@H](CCC(=O)O)NC(=O)[C@H](CO)NC(=O)[C@H](Cc1ccc(O)cc1)NC(=O)[C@H](CCCNC(=N)N)NC(=O)[C@H](CCC(N)=O)NC(=O)[C@@H](N)CC(C)C)[C@@H](C)O)C(C)C)C(=O)N1CCC[C@H]1C(=O)N[C@@H](CO)C(=O)N[C@@H](CCC(=O)O)C(=O)O | – |
| 0.0075 | 0.0075 | AIKVLRENTSPKANK | – |
| – | – | CC[C@H](C)[C@H](NC(=O)CNC(=O)[C@@H](NC(=O)[C@@H](NC(=O)[C@H](C)NC(=O)[C@H](CO)NC(=O)[C@@H](NC(=O)[C@@H](NC(=O)[C@H](CO)NC(=O)[C@@H](NC(=O)[C@@H](N)CC(C)C)[C@@H](C)O)[C@@H](C)CC)[C@@H](C)CC)C(C)C)C(C)C)C(=O)N[C@@H](CC(C)C)C(=O)N[C@@H](CC(C)C)C(=O)N[C@H](C(=O)N[C@H](C(=O)O)C(C)C)C(C)C | DR147 Cross-binding [1]: 1 |
| 0.0520 | – | SLSFLQDIQEVQGYV | – |

| DR3 binding data [2, 4] | DR3 binding data [2, 5] | Compound | further results |
| --- | --- | --- | --- |
| 0.0250 | – | GDLVDAEEYLVPQQG | – |
| −0.0027 | – | MRRLLQETELVEPLT | – |
| −0.0027 | – | SLAFLPESFDGDPAS | – |
| – | – | CC[C@H](C)[C@H](NC(=O)[C@H](Cc1ccccc1)NC(=O)[C@H](CO)NC(=O)[C@H](CC(C)C)NC(=O)[C@H](CO)NC(=O)[C@H](C)NC(=O)[C@H](CC(N)=O)NC(=O)[C@@H](NC(=O)[C@@H]1CCCN1C(=O)[C@@H](N)Cc1ccccc1)[C@@H](C)O)C(=O)O [Her2/neu.65.F1I10] | IC50 [3]: 120 nM |
| −0.0027 | – | NQEVTAEDGTQRCEK | – |
| −0.0027 | – | LVTYNTDTFESMPNP | – |
| – | – | CC[C@H](C)[C@H](NC(=O)[C@@H](NC(=O)[C@H](CS)NC(=O)[C@@H](NC(=O)[C@@H]1CCCN1C(=O)[C@@H]1CCCN1C(=O)[C@H](CCC(N)=O)NC(=O)[C@@H]1CCCN1C(=O)[C@H](CC(C)C)NC(=O)[C@H](CCCNC(=N)N)NC(=O)[C@H](CCC(=O)O)NC(=O)CN)[C@@H](C)CC)[C@@H](C)O)C(=O)N[C@@H](CC(=O)O)C(=O)N[C@H](C(=O)N[C@@H](Cc1ccc(O)cc1)C(=O)O)C(C)C | DR147 Cross-binding [1]: 0 |
| 0.0630 | – | CSCC[C@H](NC(=O)[C@H](CC(=O)O)NC(=O)[C@H](CC(=O)O)NC(=O)[C@H](CC(=O)O)NC(=O)[C@H](CCC(=O)O)NC(=O)[C@H](CC(C)C)NC(=O)[C@H](CC(C)C)NC(=O)[C@H](CO)NC(=O)[C@H](CCCNC(=N)N)NC(=O)[C@@H](N)Cc1ccc(O)cc1)C(=O)NCC(=O)N[C@@H](CC(=O)O)C(=O)N[C@@H](CC(C)C)C(=O)N[C@H](C(=O)N[C@@H](CC(=O)O)C(=O)O)C(C)C | – |
| 0.0023 | – | TAPLQPEQLQVEETL | – |
| −0.0025 | −0.0025 | DLTLGLEPSEEEAPR | – |
| – | – | FPGGLRELQI [Her2/neu.133.F1I10] | IC50 [3]: 306 nM |
| −0.0025 | – | TVPLPSETDGYVAPL | – |
| – | 0.0023 | CC(C)C[C@H](NC(=O)[C@@H](NC(=O)[C@H](CCC(=O)O)NC(=O)[C@H](Cc1ccccc1)NC(=O)[C@@H](NC(=O)[C@H](CCC(N)=O)NC(=O)[C@H](CC(C)C)NC(=O)[C@H](CCC(N)=O)NC(=O)[C@H](CCC(=O)O)NC(=O)[C@@H]1CCCN1C(=O)[C@H](CCC(N)=O)NC(=O)[C@H](CC(C)C)NC(=O)[C@@H]1CCCN1C(=O)[C@H](C)NC(=O)[C@@H](N)[C@@H](C)O)C(C)C)[C@@H](C)O)C(=O)O | – |
| 0.1600 | – | CC[C@H](C)[C@H](NC(=O)[C@@H](NC(=O)[C@@H](NC(=O)[C@H](Cc1ccccc1)NC(=O)[C@H](CCCNC(=N)N)NC(=O)[C@H](CCC(N)=O)NC(=O)[C@@H]1CCCN1C(=O)[C@H](CC(=O)O)NC(=O)[C@H](CCCNC(=N)N)NC(=O)[C@H](C)NC(=O)[C@H](CCSC)NC(=O)[C@H](CCCNC(=N)N)NC(=O)[C@H](CO)NC(=O)[C@@H](N)Cc1ccccc1)C(C)C)C(C)C)C(=O)N[C@@H](CCC(N)=O)C(=O)O | – |
| – | – | CC[C@H](C)[C@H](NC(=O)[C@@H]1CCCN1C(=O)[C@@H](NC(=O)[C@@H](NC(=O)[C@H](CC(N)=O)NC(=O)[C@H](CC(N)=O)NC(=O)[C@H](CC(C)C)NC(=O)[C@@H]1CCCN1C(=O)[C@@H](N)Cc1ccccc1)[C@@H](C)O)[C@@H](C)O)C(=O)O [Her2/neu.121.F1I9] | IC50 [3]: 1.6 nM |
| −0.0025 | −0.0025 | FVVIQNEDLGPASPL | – |
| −0.0025 | – | DNLYYWDQDPPERGA | – |
| 0.0083 | 0.0083 | CSCC[C@H](NC(=O)CNC(=O)[C@H](CC(C)C)NC(=O)CNC(=O)[C@H](Cc1ccc(O)cc1)NC(=O)[C@@H](N)CS)C(=O)N[C@@H](CCC(=O)O)C(=O)N[C@@H](Cc1c[nH]cn1)C(=O)N[C@@H](CC(C)C)C(=O)N[C@@H](CCCNC(=N)N)C(=O)N[C@@H](CCC(=O)O)C(=O)N[C@H](C(=O)N[C@@H](CCCNC(=N)N)C(=O)N[C@@H](C)C(=O)N[C@H](C(=O)O)C(C)C)C(C)C | – |
